Common to all, as to format: cell-based
Experiment [1] has as its system Staphylococcus epidermidis ATCC 12228. Put plainly: MIC, NCCLS M7-A6 broth microdilution (Table 9, no superscript). The conditions noted are these: ATCC 12228. In short, it runs like this:
(§1)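 Values come from a broth microdilution assay run in cation-adjusted Mueller Hinton broth with an inoculum of 5×10^5 to 1×10^6 CFU/milliliter, incubated overnight at 37° C and read as absence of visible turbidity.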
In general terms: In broth dilution the organism is exposed to a series of concentrations in liquid medium.

Experiment [2] concerns Salmonella dublin (Lane). The description is as above. In outline:
as §1

The test system of experiment [3] is Pseudomonas aeruginosa ATCC 27853. The experiment is described as above. The note with it: ATCC 27853. In outline:
as §1

For experiment [4], the system named is Escherichia coli ATCC 25922. The description is as above. The note with it: ATCC 25922. In short, it runs like this: as §1
Experiment [5] concerns Propionibacterium acnes ATCC 6919. As to the kind of experiment: MIC, agar dilution method NCCLS M11-A6, Brucella agar, anaerobic (Table 9, superscript c). The conditions noted are these: ATCC 6919. On the procedure:
A bacterial suspension was prepared to allow for a final inoculum on the plate of 1.5×10^8 CFU/milliliter. After the suspension absorbed into the agar surface, the plates were incubated for 48-96 hours at 37° C. in a GasPak anaerobic chamber. The lowest concentration of peptide that contained no colony growth on the agar plate was determined as the MIC. MIC values that utilized this method of MIC determination are indicated in Table 9 with a superscript letter “c.”
On the technique in general: In agar dilution, organisms are placed on agar that contains the substance at set levels.

In experiment [6] the test system is Staphylococcus aureus ATCC 29213. As to the kind of experiment: MIC, NCCLS M7-A6 broth microdilution, cation-adjusted Mueller Hinton broth (Table 9, no superscript). The conditions noted are these: ATCC 29213. In outline: as §1

Converted amounts (≈) assume the structure as drawn. Non-standard residues stand in square brackets, D forms with d. Residues, ends and D or L forms follow the SMILES beside them. *: point of attachment. 1Nal = N[C@@H](Cc1cccc2ccccc12)C(=O)O; Lauroyl = CCCCCCCCCCCC(=O)*; Decanoyl = CCCCCCCCCC(=O)*; Octanoyl = CCCCCCCC(=O)* Some results are limits rather than exact numbers.

`CCCCCCCCCCCC(=O)N[C@@H](CCCNC(=N)N)C(=O)N[C@@H](Cc1c[nH]c2ccccc12)C(=O)N[C@@H](CCCNC(=N)N)C(=O)N[C@@H](CC(=O)O)C(=O)N[C@H](C(=O)N[C@@H](C)C(=O)N[C@@H](CCCNC(=N)N)C(N)=O)C(C)C` [Peptide 105, Lauryl-RWRDVAR-NH2] (Lauroyl-RWRDVAR-NH2): the “MIC S. epidermidis” value in experiment [1] turned out to be 8 µg/mL (≈ 7.02 µM). Also, the “MIC S. dublin” value in experiment [2] was above 32 µg/mL. Moreover, in experiment [3], the “MIC P. aeruginosa” value is 32 µg/mL (≈ 28.1 µM). The “MIC E. coli” value in experiment [4] was 32 µg/mL (≈ 28.1 µM). Also, the “MIC P. acnes” value in experiment [5] is reported as 32c ug/mL. For the same compound, the “MIC S. aureus” value in experiment [6] was found to be 16 µg/mL (≈ 14 µM).

In the case of `CCCCCCCCCCCC(=O)N[C@@H](CCCNC(=N)N)C(=O)N[C@@H](CO)C(=O)N[C@@H](CCCNC(=N)N)C(=O)N[C@@H](Cc1c[nH]c2ccccc12)C(=O)N[C@@H](CCCNC(=N)N)C(=O)N[C@@H](CC(=O)O)C(=O)N[C@@H](Cc1cccc2ccccc12)C(=O)N[C@@H](C)C(=O)N[C@@H](CCCNC(=N)N)C(=O)N[C@@H](CC(N)=O)C(=O)N[C@@H](Cc1ccccc1)C(=O)N[C@@H](CCSC)C(=O)N[C@@H](CCCNC(=N)N)C(N)=O` [Peptide 150, Lauryl-RSRWRDZARNFMR-NH2 Z = 1-naphthylalanine] (Lauroyl-RSRWRD[1Nal]ARNFMR-NH2), the “MIC S. epidermidis” value in experiment [1] came out at 4 µg/mL (≈ 1.97 µM). The “MIC S. dublin” value in experiment [2] amounted to 32 µg/mL (≈ 15.8 µM). For the same compound, the “MIC P. aeruginosa” value in experiment [3] is above 64 µg/mL. For the same compound, the “MIC E. coli” value in experiment [4] is 64 µg/mL (≈ 31.5 µM). The “MIC P. acnes” value in experiment [5] is above 64c ug/mL. The “MIC S. aureus” value in experiment [6] stood at 8 µg/mL (≈ 3.94 µM).

Take `CCCCCCCCCCCC(=O)N[C@H](CCCNC(=N)N)C(=O)N[C@H](CO)C(=O)N[C@H](CCCNC(=N)N)C(=O)N[C@H](Cc1c[nH]c2ccccc12)C(=O)N[C@H](CCCNC(=N)N)C(=O)N[C@H](CC(=O)O)C(=O)N[C@@H](C(=O)N[C@H](C)C(=O)N[C@H](CCCNC(=N)N)C(=O)N[C@H](CC(N)=O)C(=O)N[C@H](Cc1ccccc1)C(=O)N[C@H](CC(C)C)C(N)=O)C(C)C` [Peptide 211, Lauryl-rsrwrdvarnfl-NH2] (Lauroyl-[dR][dS][dR][dW][dR][dD][dV][dA][dR][dN][dF][dL]-NH2): the “MIC S. epidermidis” value in experiment [1] worked out at 2 µg/mL (≈ 1.14 µM). In addition, the “MIC S. dublin” value in experiment [2] amounted to 4 µg/mL (≈ 2.28 µM). Moreover, the “MIC P. aeruginosa” value in experiment [3] came to 64 µg/mL (≈ 36.4 µM). The “MIC E. coli” value in experiment [4] was 8 µg/mL (≈ 4.55 µM). The “MIC P. acnes” value in experiment [5] amounted to 4c ug/mL. Further, the “MIC S. aureus” value in experiment [6] stood at 4 µg/mL (≈ 2.28 µM).

With `CCCCCCCCCCCC(=O)N[C@@H](CCCNC(=N)N)C(=O)N[C@@H](CO)C(=O)N[C@@H](CCCNC(=N)N)C(=O)N[C@@H](Cc1cccc2ccccc12)C(=O)N[C@@H](CCCNC(=N)N)C(=O)N[C@@H](CC(=O)O)C(=O)N[C@H](C(=O)N[C@@H](C)C(=O)N[C@@H](CCCNC(=N)N)C(=O)N[C@@H](CC(N)=O)C(=O)N[C@@H](Cc1ccccc1)C(=O)N[C@@H](CCSC)C(=O)N[C@@H](CCCNC(=N)N)C(N)=O)C(C)C` [Peptide 149, Lauryl-RSRZRDVARNFMR-NH2 Z = 1-naphthylalanine] (Lauroyl-RSR[1Nal]RDVARNFMR-NH2), the “MIC S. epidermidis” value in experiment [1] is 4 µg/mL (≈ 2.06 µM). Also, the “MIC S. dublin” value in experiment [2] is 32 µg/mL (≈ 16.5 µM). Besides, the “MIC P. aeruginosa” value in experiment [3] is above 64 µg/mL. For the same compound, the “MIC E. coli” value in experiment [4] is 64 µg/mL (≈ 32.9 µM). Also, the “MIC P. acnes” value in experiment [5] was 32c ug/mL. The “MIC S. aureus” value in experiment [6] was 16 µg/mL (≈ 8.24 µM).

In the case of `CCCCCCCCCCCC(=O)N[C@H](CCCNC(=N)N)C(=O)N[C@H](CO)C(=O)N[C@H](CCCNC(=N)N)C(=O)N[C@H](Cc1c[nH]c2ccccc12)C(=O)N[C@H](CCCNC(=N)N)C(=O)N[C@H](CC(=O)O)C(=O)N[C@H](CO)C(=O)N[C@H](C)C(=O)N[C@H](CCCNC(=N)N)C(=O)N[C@H](CC(N)=O)C(=O)N[C@H](Cc1ccccc1)C(=O)N[C@H](CCSC)C(=O)N[C@H](CCCNC(=N)N)C(N)=O` [Peptide 233, Lauryl-rsrwrdsarnfmr-NH2] (Lauroyl-[dR][dS][dR][dW][dR][dD][dS][dA][dR][dN][dF][dM][dR]-NH2), the “MIC S. epidermidis” value in experiment [1] is 16 µg/mL (≈ 8.34 µM). Besides, the “MIC S. dublin” value in experiment [2] was above 64 µg/mL. The “MIC P. aeruginosa” value in experiment [3] stood at 64 µg/mL (≈ 33.3 µM). The “MIC E. coli” value in experiment [4] was 16 µg/mL (≈ 8.34 µM). For the same compound, the “MIC P. acnes” value in experiment [5] is 16c ug/mL. Also, the “MIC S. aureus” value in experiment [6] was determined as 16 µg/mL (≈ 8.34 µM).

On to `CCCCCCCCCCCC(=O)N[C@@H](CCCNC(=N)N)C(=O)N[C@@H](Cc1c[nH]c2ccccc12)C(=O)N[C@@H](CCCNC(=N)N)C(=O)N[C@@H](C)C(=O)N[C@@H](CC(C)C)C(=O)N[C@@H](C)C(=O)N[C@@H](CCCNC(=N)N)C(N)=O` [Peptide 242, Lauryl-RWRALAR-NH2] (Lauroyl-RWRALAR-NH2), for which the “MIC S. epidermidis” value in experiment [1] was 2 µg/mL (≈ 1.8 µM). In addition, in experiment [2], the “MIC S. dublin” value turned out to be 32 µg/mL (≈ 28.8 µM). The “MIC P. aeruginosa” value in experiment [3] was determined as 8 µg/mL (≈ 7.21 µM). In experiment [4], the “MIC E. coli” value was found to be 16 µg/mL (≈ 14.4 µM). Further, the “MIC P. acnes” value in experiment [5] is reported as 64c ug/mL. Further, the “MIC S. aureus” value in experiment [6] amounted to 2 µg/mL (≈ 1.8 µM).

Consider `CCCCCCCC(=O)N[C@H](CCCNC(=N)N)C(=O)N[C@H](CO)C(=O)N[C@H](CCCNC(=N)N)C(=O)N[C@H](Cc1c[nH]c2ccccc12)C(=O)N[C@H](CCCNC(=N)N)C(=O)N[C@H](CC(=O)O)C(=O)N[C@@H](C(=O)N[C@H](C)C(=O)N[C@H](CCCNC(=N)N)C(=O)N[C@H](CC(N)=O)C(=O)N[C@H](Cc1ccccc1)C(=O)N[C@H](CCSC)C(=O)N[C@H](CCCNC(=N)N)C(N)=O)C(C)C` [Peptide 207, Octyl-rsrwrdvarnfmr-NH2] (Octanoyl-[dR][dS][dR][dW][dR][dD][dV][dA][dR][dN][dF][dM][dR]-NH2), for which, in experiment [1], the “MIC S. epidermidis” value came to 4 µg/mL (≈ 2.13 µM). For the same compound, the “MIC S. dublin” value in experiment [2] amounted to 64 µg/mL (≈ 34.1 µM). Also, the “MIC P. aeruginosa” value in experiment [3] was found to be 32 µg/mL (≈ 17.1 µM). Further, the “MIC E. coli” value in experiment [4] came to 32 µg/mL (≈ 17.1 µM). In addition, the “MIC P. acnes” value in experiment [5] amounted to 16c ug/mL. Moreover, in experiment [6], the “MIC S. aureus” value amounted to 16 µg/mL (≈ 8.53 µM).

With `CCCCCCCCCC(=O)N[C@@H](CCCNC(=N)N)C(=O)N[C@@H](CO)C(=O)N[C@@H](CCCNC(=N)N)C(=O)N[C@@H](Cc1c[nH]c2ccccc12)C(=O)N[C@@H](CCCNC(=N)N)C(=O)N[C@@H](CC(=O)O)C(=O)N[C@H](C(=O)N[C@@H](C)C(=O)N[C@@H](CCCNC(=N)N)C(=O)N[C@@H](CC(N)=O)C(=O)N[C@@H](Cc1ccccc1)C(=O)N[C@@H](CCSC)C(=O)N[C@@H](CCCNC(=N)N)C(N)=O)C(C)C` [Peptide 204, Decanyl-RSRWRDVARNFMR-NH2] (Decanoyl-RSRWRDVARNFMR-NH2), in experiment [1], the “MIC S. epidermidis” value is 2 µg/mL (≈ 1.05 µM). Besides, in experiment [2], the “MIC S. dublin” value was found to be 32 µg/mL (≈ 16.8 µM). Besides, the “MIC P. aeruginosa” value in experiment [3] turned out to be 32 µg/mL (≈ 16.8 µM). In experiment [4], the “MIC E. coli” value was found to be 8 µg/mL (≈ 4.2 µM). Moreover, in experiment [5], the “MIC P. acnes” value is on record as above 64c ug/mL. The “MIC S. aureus” value in experiment [6] was 8 µg/mL (≈ 4.2 µM).

As for `CCCCCCCCCCCC(=O)N[C@H](CCCNC(=N)N)C(=O)N[C@H](CCCCN)C(=O)N[C@H](CCCNC(=N)N)C(=O)N[C@H](Cc1c[nH]c2ccccc12)C(=O)N[C@H](CCCNC(=N)N)C(=O)N[C@H](CCC(=O)O)C(=O)N[C@@H](C(=O)N[C@H](C)C(=O)N[C@H](CCCNC(=N)N)C(=O)N[C@H](CC(N)=O)C(=O)N[C@H](Cc1ccccc1)C(=O)N[C@H](CC(C)C)C(=O)N[C@H](CCCNC(=N)N)C(N)=O)C(C)C` [Peptide 220, Lauryl-rkrwrevarnflr-NH2] (Lauroyl-[dR][dK][dR][dW][dR][dE][dV][dA][dR][dN][dF][dL][dR]-NH2), in experiment [1], the “MIC S. epidermidis” value was 1 µg/mL (≈ 0.508 µM). The “MIC S. dublin” value in experiment [2] turned out to be 2 µg/mL (≈ 1.02 µM). In experiment [3], the “MIC P. aeruginosa” value came out at 8 µg/mL (≈ 4.06 µM). Also, the “MIC E. coli” value in experiment [4] is 4 µg/mL (≈ 2.03 µM). The “MIC P. acnes” value in experiment [5] is on record as 16c ug/mL. In addition, in experiment [6], the “MIC S. aureus” value was found to be 2 µg/mL (≈ 1.02 µM).

Values taken from patent US20050282755A1, “Compositions having antimicrobial activity and uses thereof” (priority 2004, published 2005).
